Assays:
Format in all cases: in vivo, humans
mesotheliomas = test: Clinical trial in patients with mesotheliomas; conditions: 3 days of treatment and 4 days of non-treatment; for duration of treatment (until disease progression) / tumour response according to RECIST 1.1: oral solution
Description: Patient 1010, epithelioid mesothelioma, progressive disease on study enrollment, systemic pre-therapies with Alimta and cisplatin, gemcitabine, doxorubicin, dekabine
Patient 1016, epithelioid mesothelioma, stage IV, progressive disease on study enrollment, systemic pre-therapies with Alimta and cisplatin, Alimta and carboplatin, Alimta and carboplatin and Avastin, Avastin, Alimta, gemcitabine
Patient 1023, pleuramesothelioma, stage IV, progressive disease on study enrollment, systemic pre-therapies with cisplatin and Alimta
Patient 1024, pleuramesothelioma, stage IV, progressive disease on study enrollment, systemic pre-therapies with cisplatin and Alimta and Avastin, Avastin, carboplatin and Alimta and doxorubicin and dekapine
Oral solution in two dose strengths, ingredients micronized BAY 1000394 (0.2 mg/ml and 4.8 mg/ml), Levomenthol (synonym: 1-menthol, flavouring), macrogol (400) (synonym: polyethylene glycol (400), solubilizer), polysorbate 20 (surfactant)
Dosage twice a day 1.2 mg (patient 1010), 4.8 mg (patient 1016) and 9.6 mg (patients 1023 and 1024), administration protocol 3 days of treatment and 4 days of non-treatment, long-term treatment until disease progression

thyroid cancer = test: Clinical trial in patients with thyroid cancer
Experimental: Patient 2006, clinical study 14856, person, papillary thyroid cancer stage IV, progressive disease on study enrollment, systemic pre-therapies with 17-AAG, Sutent, sorafenib, erlotinib and temsirolimus
Patient 1030, clinical study 14484, person, thyroid cancer stage IV, progressive disease on study enrollment, systemic pre-therapies with Adriamycin and cisplatin/carboplatin, carboplatin and Taxol, Nexavar, Sutent
Patient 2006: oral solution, ingredients micronized BAY 1000394 (0.2 mg/ml), levomenthol (synonym: 1-menthol, flavouring) macrogol (400) (synonym: polyethylene glycol (400), solubilizer), polysorbate 20 (surfactant)
Patient 1030: tablet, ingredients BAY 1000394, micronized, 5 mg/tablet, granulated mannitol (filler), microcrystalline cellulose (filler), croscarmellose (disintegrant), magnesium stearate (additive for pressing), red lacquer (coating)
Patient 2006: dosage twice a day 0.3 mg, administration protocol 28 days of treatment and 14 days of non-treatment, long-term treatment until disease progression
Patient 1030: dosage 5 mg in the morning, 10 mg in the evening, administration protocol 3 days of treatment and 4 days of non-treatment, long-term treatment until disease progression

[1] = tested on: squamous cell carcinoma of the oesophagus; test: Clinical trial in a patient with squamous cell carcinomas of the oesophagus; conditions: 28 days of treatment and 14 days of non-treatment
Experimental: Patient 3002, squamous cell carcinoma of the oesophagus stage IV, progressive disease on study enrollment, systemic pre-therapy with cisplatin and Xeloda
Oral solution, ingredients micronized BAY 1000394 (0.2 mg/ml), levomenthol (synonym: 1-menthol, flavouring) macrogol (400) (synonym: polyethylene glycol (400), solubilizer), polysorbate 20 (surfactant)
Dosage twice a day 0.5 mg, administration protocol 28 days of treatment and 14 days of non-treatment, long-term treatment until disease progression

[2] = tested on: cholangiocellular carcinoma; test: Clinical trial in a patient with cholangiocellular carcinoma; conditions: 3 days of treatment and 4 days of non-treatment
Experimental: Patient 1026, cholangiocellular carcinoma stage IV, progressive disease on study enrollment, systemic pre-therapies with cisplatin/oxaliplatin and Gemzar, 5-fluorouracil and folinic acid
tablet, ingredients BAY 1000394, micronized, 5 mg/tablet, granulated mannitol (filler), microcrystalline cellulose (filler), croscarmellose (disintegrant), magnesium stearate (additive for pressing), red lacquer (coating)
Dosage twice a day 5 mg, administration protocol 3 days of treatment and 4 days of non-treatment, long-term treatment until disease progression

[3] = patient 1010, epithelioid mesothelioma, twice a day 1.2 mg
[4] = patient 1016, epithelioid mesothelioma stage IV, twice a day 4.8 mg
[5] = patient 1023, pleuramesothelioma stage IV, twice a day 9.6 mg
[6] = patient 1024, pleuramesothelioma stage IV, twice a day 9.6 mg
[7] = patient 1030, thyroid cancer stage IV, tablet, 5 mg in the morning, 10 mg in the evening, 3 days of treatment and 4 days of non-treatment
[8] = patient 2006, papillary thyroid cancer stage IV, oral solution, twice a day 0.3 mg, 28 days of treatment and 14 days of non-treatment
[9] = patient 3002, squamous cell carcinoma of the oesophagus stage IV, oral solution, twice a day 0.5 mg
[10] = patient 1026, cholangiocellular carcinoma stage IV, tablet, twice a day 5 mg

SMILES: C[C@@H](O)[C@@H](C)Oc1nc(Nc2ccc(S(=N)(=O)C3CC3)cc2)ncc1C(F)(F)F (mixture of isomers) [Compound A, (RS)—S-cyclopropyl-S-(4-{[4-{[(1R,2R)-2-hydroxy-1-methylpropyl]oxy}-5-(trifluoromethyl)pyrimidin-2-yl]amino}phenyl)sulphoximide]
- treatment outcome in mesothelioma patients (mesotheliomas; daily dose of 2.4 mg, 9.6 mg and 19.2 mg divided into two identical dosage units): Disease stabilization
- treatment outcome in thyroid cancer patients (thyroid cancer; daily dose of 0.6 mg divided into two identical dosage units, 28 days of treatment and 14 days of non-treatment): Disease stabilization
- treatment outcome in thyroid cancer patients (thyroid cancer; daily dose of 15 mg (5 mg in the morning, 10 mg in the evening), 3 days of treatment and 4 days of non-treatment): Disease stabilization
- treatment outcome in a patient suffering from squamous cell carcinoma of the oesophagus ([1]; daily dose of 1 mg divided into two identical dosage units): Disease stabilization
- treatment outcome in a patient suffering from cholangiocellular carcinoma ([2]; daily dose of 10 mg divided into two identical dosage units): Disease stabilization

SMILES: C[C@@H](O)[C@@H](C)Oc1nc(Nc2ccc([S@](=N)(=O)C3CC3)cc2)ncc1C(F)(F)F [BAY 1000394, (R)—S-cyclopropyl-S-(4-{[4-{[(1R,2R)-2-hydroxy-1-methylpropyl]oxy}-5-(trifluoromethyl)pyrimidin-2-yl]amino}phenyl)sulphoximide]
- duration of treatment (until disease progression) (mesotheliomas; [3]): about 4 months
- tumour response according to RECIST 1.1 (mesotheliomas; [3]): disease stabilization
- duration of treatment (until disease progression) (mesotheliomas; [4]): more than 3 months
- tumour response according to RECIST 1.1 (mesotheliomas; [4]): disease stabilization
- duration of treatment (until disease progression) (mesotheliomas; [5]): about 2 months
- tumour response according to RECIST 1.1 (mesotheliomas; [5]): disease stabilization
- duration of treatment (until disease progression) (mesotheliomas; [6]): about 2 months
- tumour response according to RECIST 1.1 (mesotheliomas; [6]): disease stabilization
- duration of treatment (until disease progression) (thyroid cancer; [7]): more than 3 months
- tumour response according to RECIST 1.1 (thyroid cancer; [7]): disease stabilization
- duration of treatment (until disease progression) (thyroid cancer; [8]): about 2 months
- tumour response according to RECIST 1.1 (thyroid cancer; [8]): disease stabilization
- duration of treatment (until disease progression) [1, 9]: more than 2 months
- tumour response according to RECIST 1.1 [1, 9]: disease stabilization
- duration of treatment (until disease progression) [2, 10]: more than 4 months
- tumour response according to RECIST 1.1 [2, 10]: disease stabilization

Reference: patent US20150051232A1, “USE OF (RS)-S-CYCLOPROPYL-S-(4--5-(TRIFLUOROMETHYL)PYRIMIDIN-2-YL]AMINO}PHENYL)SULFOXIMIDE FOR TREATING SPECIFIC TUMOURS” (Bayer Intellectual Property GmbH, priority 2012, published 2015)
